Assay [1] has as its system Botulinum toxin type B (BoNT/B). Set-up: species or system Balb/c mice. The note with it: mouse, in vivo.
Assay [2] has as its system Botulinum toxin type A (BoNT/A). The arrangement: species or system Balb/c mice. Particulars: mouse, in vivo.
In assay [3] the target is Botulinum toxin type B endopeptidase (BoNT/B-LC) (Clostridium botulinum, UniProt P10844). It is filed as biochemical.
The target in assay [4] is Botulinum toxin type A endopeptidase (BoNT/A-LC) (Clostridium botulinum, UniProt P0DPI0). It is filed as biochemical.
Sequence of Botulinum toxin type A endopeptidase (BoNT/A-LC) (P0DPI0 2-448 limits assumed): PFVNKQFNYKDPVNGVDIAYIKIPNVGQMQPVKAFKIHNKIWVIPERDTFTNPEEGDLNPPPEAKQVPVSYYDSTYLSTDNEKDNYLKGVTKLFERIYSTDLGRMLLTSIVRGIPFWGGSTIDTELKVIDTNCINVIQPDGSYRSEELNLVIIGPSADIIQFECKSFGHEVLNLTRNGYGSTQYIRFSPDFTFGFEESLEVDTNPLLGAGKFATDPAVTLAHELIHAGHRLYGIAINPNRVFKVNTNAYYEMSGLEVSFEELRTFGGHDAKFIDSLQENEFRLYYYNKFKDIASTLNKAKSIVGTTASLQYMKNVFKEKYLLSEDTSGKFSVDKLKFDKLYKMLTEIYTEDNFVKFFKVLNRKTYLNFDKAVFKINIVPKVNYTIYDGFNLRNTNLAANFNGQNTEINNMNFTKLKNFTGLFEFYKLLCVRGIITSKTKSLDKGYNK
In assay [5] the test system is N2a cells. Particulars: cited from earlier work.

Sequence of Botulinum toxin type B endopeptidase (BoNT/B-LC) (P10844 2-441 limits assumed): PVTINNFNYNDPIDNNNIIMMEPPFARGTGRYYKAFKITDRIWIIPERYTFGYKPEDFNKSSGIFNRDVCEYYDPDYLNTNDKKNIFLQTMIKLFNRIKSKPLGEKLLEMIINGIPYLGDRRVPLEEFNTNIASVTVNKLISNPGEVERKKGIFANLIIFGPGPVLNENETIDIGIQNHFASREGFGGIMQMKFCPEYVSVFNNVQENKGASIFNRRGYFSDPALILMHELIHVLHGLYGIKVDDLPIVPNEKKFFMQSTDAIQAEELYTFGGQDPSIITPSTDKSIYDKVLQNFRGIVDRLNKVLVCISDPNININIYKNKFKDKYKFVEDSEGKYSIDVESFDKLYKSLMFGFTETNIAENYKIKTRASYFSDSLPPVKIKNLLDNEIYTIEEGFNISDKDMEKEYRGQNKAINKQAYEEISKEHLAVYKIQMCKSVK

For the compound `COc1ccc(Cl)cc1NC(=O)C[S+]([O-])c1ncccc1C(=O)O` (centres unmarked) [Compound 2c, 2-((2-((5-chloro-2-methoxyphenyl)amino)-2-oxoethyl)sulfinyl)nicotinic acid], the figures for the Survival rate % in assay [1] and in assay [2] were 20% and 100%, respectively. Besides, the Inhibition rate % in assay [3] is 35%; in assay [4], 60.0%.
The like results for `COc1ccc(Cl)cc1NC(=O)COc1ncccc1C(=O)O` [Compound 6a, 2-(2-((5-chloro-2-methoxyphenyl)amino)-2-oxoethoxy)nicotinic acid] were, in that order, 20%, 60%, 80% and 0%.
The matching figures for `COc1ccc(Cl)cc1NC(=O)CS(=O)(=O)c1cc(C(=O)O)ccn1` [Compound 2a, 2-((2-((5-chloro-2-methoxyphenyl)amino)-2-oxoethyl)sulfonyl)isonicotinic acid]: 0%, 0%, 0% and 10%.
The like results for `O=C(CS(=O)(=O)c1ncccc1C(=O)O)Nc1cc(Cl)ccc1Oc1ccccc1` [Compound 2b, 2-((2-((5-chloro-2-phenoxyphenyl)amino)-2-oxoethyl)sulfonyl)nicotinic acid] were, in that order, 0%, 0%, 0% and 5%.
On to `CCOc1ccc(C(Nc2cccnc2)c2cc(Cl)c3cccnc3c2O)cc1` (centres unmarked) [CB7969312], for which, in assay [5], the “neutralization of toxicity of botulinum toxin type A to N2a cells” value is reported as “effectively neutralizes the toxicity”.

The values are drawn from patent US10981873B2 (priority 2016, dated 2021).
